Reference: ChEMBL document CHEMBL1144369, “2-Ethoxybenzoxazole as a bioisosteric replacement of an ethyl benzoate group in a human rhinovirus (HRV) capsid binder” (Bioorg Med Chem Lett, 2005)
In brackets after ≈: the same amount, converted by molar mass.

test system: Human rhinovirus sp.; test: Effective concentration against HRV-2; assay type: functional, organism-based

Row | Compound | EC50 [µg/mL]
1 | CCSc1nc2ccc(OCCC3CCN(c4ccc(C)nn4)CC3)cc2n1C | 0.086 (≈ 0.209 µM)
2 | CCCCc1nc2cc(OCCC3CCN(c4ccc(C)nn4)CC3)ccc2o1 | 0.013 (≈ 0.033 µM)
3 | CCSc1nc2cc(OCCC3CCN(c4ccc(C)nn4)CC3)ccc2n1C | 0.102 (≈ 0.248 µM)
4 | CCSc1nc2ccc(OCCC3CCN(c4ccc(C)nn4)CC3)cc2o1 | 0.004 (≈ 0.01 µM)
5 | CSc1nc2cc(OCCC3CCN(c4ccc(C)nn4)CC3)ccc2o1 | 0.099 (≈ 0.257 µM)

Next, values leading:

Row | EC50 [µg/mL] | Compound
6 | > 0.5 | Cc1ccc(N2CCC(CCOc3ccc4nc(C)oc4c3)CC2)nn1
7 | 0.144 (≈ 0.393 µM) | CCc1nc2cc(OCCC3CCN(c4ccc(C)nn4)CC3)ccc2o1
8 | 0.075 (≈ 0.197 µM) | CCCc1nc2cc(OCCC3CCN(c4ccc(C)nn4)CC3)ccc2o1
9 | 0.045 (≈ 0.118 µM) | CCOc1nc2ccc(OCCC3CCN(c4ccc(C)nn4)CC3)cc2o1
10 | 0.166 (≈ 0.402 µM) | CCCOc1nc2ccc(OCCC3CCN(c4ccc(C)nn4)CC3)cc2s1

test system: Human rhinovirus sp.; test: Effective concentration against HRV-14; assay type: functional, organism-based

Row | Compound | EC50 [µg/mL]
11 | CCSc1nc2ccc(OCCC3CCN(c4ccc(C)nn4)CC3)cc2n1C | > 0.25
12 | CCCCc1nc2cc(OCCC3CCN(c4ccc(C)nn4)CC3)ccc2o1 | 0.082 (≈ 0.208 µM)
13 | CCSc1nc2cc(OCCC3CCN(c4ccc(C)nn4)CC3)ccc2n1C | 0.169 (≈ 0.411 µM)
14 | CCSc1nc2ccc(OCCC3CCN(c4ccc(C)nn4)CC3)cc2o1 | 0.05 (≈ 0.125 µM)
15 | CSc1nc2cc(OCCC3CCN(c4ccc(C)nn4)CC3)ccc2o1 | 0.047 (≈ 0.122 µM)

Now from value to molecule:

Row | EC50 [µg/mL] | Compound
16 | > 0.5 | Cc1ccc(N2CCC(CCOc3ccc4nc(C)oc4c3)CC2)nn1
17 | 0.13 (≈ 0.355 µM) | CCc1nc2cc(OCCC3CCN(c4ccc(C)nn4)CC3)ccc2o1
18 | 0.028 (≈ 0.0736 µM) | CCCc1nc2cc(OCCC3CCN(c4ccc(C)nn4)CC3)ccc2o1
19 | 0.041 (≈ 0.0994 µM) | CCCOc1nc2ccc(OCCC3CCN(c4ccc(C)nn4)CC3)cc2s1

test system: Human rhinovirus sp.; test: Effective concentration against HRV-16; assay type: functional, organism-based

Row | EC50 [µg/mL] | Compound
20 | 0.023 (≈ 0.0601 µM) | CCOc1nc2ccc(OCCC3CCN(c4ccc(C)nn4)CC3)cc2o1
